# Source: patent US20100120715A1, “BETA-LACTAMASE INHIBITORS” (priority 2007, published 2010)
# Read-outs that look alike come from different tables or passages of the source.
# Key:
# [1] = tested on: K. pneumoniae expressing the Class A carbapenemase KPC-2; assay: microbe, parasite or virus in culture; conditions: in the presence of fixed 8 μg/mL Ceftazidime
# From the text: (§1) To determine the ability of test compounds to potentiate the inhibition of the growth of bacterial strains producing beta-lactamase enzymes, classic cell based screening assays were employed. Four bacteria strains producing beta-lactamase enzymes were used: K. pneumoniae expressing the Class A Extended Spectrum Beta-Lactamase (ESBL) CTX-M-15, E. coli expressing the Class A ESBL SHV-5, E. cloacae expressing the Class C P99+, and K. pneumoniae expressing the Class A carbapenemase KPC-2. In order to evaluate the ability of test compounds to inhibit beta-lactamase activity, Applicants used a modification of the broth microdilution assay. The assay was conducted in Cation Adjusted Mueller Hinton Broth (CAMHB, BD # 212322, BD Diagnostic Systems, Sparks, Md.). Bacteria strains were grown for 3-5 hours in CAMBH broth. All four strains were grown in presence of 50 μg/mL ampicillin to ensure resistance is maintained. In the meantime, test compounds were diluted in DMSO to a 0.1 mg/mL stock. The compounds were added to a microtiter plate and were diluted in 2-fold serial dilutions in CAMHB in a final concentration range of 8 μg/mL to 0.015 μg/ml. An overlay of CAMHB containing a cephalosporin was added to the compounds at a final static concentration of 8 μg/ml. […] Each of these compound plates are made in quadruplicate, one for each bacteria strain. In addition to the titration of test compounds the MICs of a panel of cephalosporins is also tested to ensure the strains are behaving consistently from test to test. Once the test compound and cephalosporin are added the plates can be inoculated. Inocula are conducted according to CLSI broth microdilution method. After inoculation the plates are incubated for 16-20 hours at 37° C. then the Minimal Inhibitory Concentration (MIC) of the test compound is determined visually.
# Class C P99 AmpC = molecular target: T1, Class C P99 AmpC (Enterobacter cloacae, UniProt P05364); format: biochemical; conditions: purified enzyme; nitrocefin 100 μM, PBS pH 7.0; read-out: P99 AmpC IC50 Range
# T1 construct: made in house; host or cells: E. coli BL21(DE3)
# Method: (§2) Isolation of β-lactamases. For all examples, purified beta-lactamase enzymes were used to measure a compounds' ability to inhibit the Class A ESBL CTXM-15, the Class C P99 AmpC and the Class A carbapenemase KPC-2. […] The enzyme preparations are described herein.
# (§3) For the isolation and purification of SHV-5, p99 AmpC, KPC-2 and CTX-M15 β-lactamases, E. coli BL21(DE3) bacterial cells carrying expression plasmids (expressed as native untagged proteins) for the individual β-lactamases were grown in 1 L of Superbroth (Teknova Inc. Hollister, Calif.) supplemented with 100 μg/ml kanamycin and 1×5052 (0.5% glycerol, 0.05% glucose and 0.2% α-lactose) at 35° C. for 18-20 hours. Cells were harvested by centrifugation (4,000×g, 4° C., 20 min), and resuspended in 50 ml of 10 mM HEPES pH 7.5 ( 1/20 of the initial volume). The cells were lysed by sonication (5 pulses of 45 seconds) at 45 W on ice. The lysates were clarified by centrifugation at 10,000×g for 40 minutes at 4° C. Samples were diluted 5-fold in 50 mM sodium acetate pH 5.0, stored overnight at 4° C., after which they were centrifuged at 10,000×g for 30 minutes to clarify, and filtered through 0.45 μm filters. The samples were loaded onto a 5 ml Capto S sepharose cation exchange column (GE Healthcare) pre-equilibrated with 50 mM sodium acetate pH 5.0. The column was washed with 5 column volumes of 50 mM sodium acetate pH 5.0 to wash out unbound protein and a linear gradient of NaCl (0 to 500 mM) was used to elute the protein (over 16 CV) from the column. Fractions were assayed for β-lactamase activity using Centa (Calbiochem, Gibbstown, N.J.) as a reporter β-lactamase substrate for activity in the isolated fractions. Active fractions were pooled, concentrated and further purified by gel filtration chromatography on a Superdex 75 prep grade gel filtration column (GE Healthcare, Piscataway, N.J.) pre-equilibrated in 50 mM Hepes pH 7.5, 150 mM NaCl. Active fractions were pooled concentrated, quantitated by BCA protein determination (Thermo Scientific, Rockford, Ill.), and frozen at −80° C. in 20% glycerol until use.
# (§4) β-lactamase Inhibition. To determine the level of inhibition of β-lactamaseenzymes, compounds were diluted in PBS at pH 7.0 to yield concentrations between 100 and 0.005 μM in microtiter plates. An equal volume of diluted enzyme stock was added, and the plates were incubated at 37° C. for 10 min. Nitrocefin solution was then dispensed as substrate into each well at a final concentration of 100 μM, and the plates were immediately read with the kinetic program at 486 nm for 10 min on the SPECTRAMAX® Plus^384 (high-throughput microplate spectrophotometer; Molecular Devices Corp., Sunnyvale, Calif.). Maximum rates of metabolism were then compared to those in control wells (without inhibitors), and percentages of enzyme inhibition were calculated for each concentration of inhibitor. The concentration of inhibitor needed to reduce the initial rate of hydrolysis of substrate by 50% (IC50) was calculated as the residual activity of β-lactamase at 486 nm using the SoftMax Pro 5.0 software (Molecular Devices Corp.).
# Class A ESBL SHV-5 = molecular target: T2, Class A ESBL SHV-5 (Klebsiella pneumoniae, UniProt P0A3M1); format: biochemical, E. coli; conditions: nitrocefin 100 μM, PBS pH 7.0, read-out: SHV-5 IC50 Range
# T2 construct: made in house; host or cells: E. coli BL21(DE3) for purified enzyme; E. coli cells containing SHV-5 for extracts
# Method: as §2
# For the preparation of SHV-5 extracts, E. coli cells containing SHV-5 were cultured overnight with shaking at a volume of 20 mL. They were further diluted 10-fold and grown to mid-log phase (OD at 600 nm, 0.5-0.8) in Mueller-Hinton II (MH-II) broth at 37° C. The cells were pelleted at 5000 g, washed and resuspended in 2 mL PBS pH 7.0. The β-lactamase was extracted by four cycles of freezing and thawing followed by centrifugation. β-lactamase activity in the extract was measured with the chromogenic cephalosporin nitrocefin. The amount of protein in each β-lactamase preparation was determined by the bicinchoninic acid (BCA) assay.
# as §3, §4
# Class A ESBL CTXM-15 = molecular target: T3, Class A ESBL CTXM-15 (Escherichia coli, UniProt Q9EXV5); assay: β-lactamase enzyme inhibition (nitrocefin hydrolysis), CTXM-15; format: biochemical; conditions: purified enzyme; nitrocefin 100 μM, PBS pH 7.0; read-out: CTXM-15 IC50 Range
# T3 construct: made in house; host or cells: E. coli BL21(DE3)
# Method: as §2, §3, §4
# [2] = molecular target: T4, Class A carbapenemase KPC-2 (Klebsiella pneumoniae, UniProt Q9F663); assay: β-lactamase enzyme inhibition (nitrocefin hydrolysis), KPC-2; format: biochemical; conditions: purified enzyme; nitrocefin 100 μM, PBS pH 7.0; read-out: KPC-2 IC50 Range
# T4 construct: made in house; host or cells: E. coli BL21(DE3)
# Method: as §2, §3, §4
# [3] = tested on: K. pneumoniae expressing the Class A ESBL CTX-M-15; assay: microbe, parasite or virus in culture; format: cell-based; conditions: in the presence of fixed 8 μg/mL Ceftazidime
# From the text: as §1, with “An overlay of CAMHB containing a cephalosporin was added to the compounds at a final static concentration of 8 μg/ml.” left out
# [4] = purified beta-lactamase enzyme (Examples 1 and 31-64)
# [5] = cellular extracts of E. coli containing SHV-5 (Examples 2-30)
# T3 sequence (Q9EXV5 entry or part of it): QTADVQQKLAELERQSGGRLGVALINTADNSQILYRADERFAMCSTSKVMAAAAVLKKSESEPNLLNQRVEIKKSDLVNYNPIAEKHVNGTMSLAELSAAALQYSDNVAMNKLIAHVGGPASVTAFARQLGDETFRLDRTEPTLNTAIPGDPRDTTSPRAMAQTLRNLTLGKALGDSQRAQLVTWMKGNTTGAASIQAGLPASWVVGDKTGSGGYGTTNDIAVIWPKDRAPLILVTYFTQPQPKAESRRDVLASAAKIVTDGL
# T2 sequence (P0A3M1 22-286): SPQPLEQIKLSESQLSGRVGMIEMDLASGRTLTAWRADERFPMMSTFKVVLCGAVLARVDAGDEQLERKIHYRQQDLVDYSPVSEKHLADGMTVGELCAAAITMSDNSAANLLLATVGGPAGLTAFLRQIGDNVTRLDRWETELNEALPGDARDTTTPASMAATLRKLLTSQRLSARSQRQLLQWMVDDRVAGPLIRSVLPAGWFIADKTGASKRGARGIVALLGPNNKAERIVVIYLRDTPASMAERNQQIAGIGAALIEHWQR
# T1 sequence (P05364 21-381): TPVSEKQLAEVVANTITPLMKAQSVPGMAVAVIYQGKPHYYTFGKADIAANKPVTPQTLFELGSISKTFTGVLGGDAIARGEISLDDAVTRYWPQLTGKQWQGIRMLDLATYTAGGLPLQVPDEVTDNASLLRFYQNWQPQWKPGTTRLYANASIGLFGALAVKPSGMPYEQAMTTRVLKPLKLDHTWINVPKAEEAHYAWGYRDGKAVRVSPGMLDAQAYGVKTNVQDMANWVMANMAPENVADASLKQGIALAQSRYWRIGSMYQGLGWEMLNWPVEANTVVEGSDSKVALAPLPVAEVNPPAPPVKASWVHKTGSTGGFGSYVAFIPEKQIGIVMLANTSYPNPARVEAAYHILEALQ
# T4 sequence (Q9F663 25-293 limits assumed): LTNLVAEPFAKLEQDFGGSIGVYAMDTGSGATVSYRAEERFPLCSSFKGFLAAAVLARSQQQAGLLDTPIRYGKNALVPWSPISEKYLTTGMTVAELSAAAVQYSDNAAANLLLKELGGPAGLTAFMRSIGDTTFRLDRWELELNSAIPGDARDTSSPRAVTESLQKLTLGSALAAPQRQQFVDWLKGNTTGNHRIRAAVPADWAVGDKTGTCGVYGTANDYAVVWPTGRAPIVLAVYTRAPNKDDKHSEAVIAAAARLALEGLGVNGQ
compound,measurement,setting,value
"O=C(Cn1cccn1)N[C@@H](Cc1cccc(C(=O)O)c1O)B(O)O [Example 40, (1R)-1-(Pyrazol-1-yl-acetylamino)-2-(2-hydroxy-3-carboxyphenyl)ethyl-1-boronic acid]","MIC of example compound, K. pneumoniae KPC-2 + 8 μg/mL CAZ",[1],C (C represents an MIC of <1 μg/mL)
same,IC50,Class C P99 AmpC,0.01 to 0.1 µM
same,IC50,Class A ESBL SHV-5; [4],0.01 to 0.1 µM
same,IC50,Class A ESBL CTXM-15,0.01 to 0.1 µM
same,IC50,[2],0.01 to 0.1 µM
same,"MIC of example compound, K. pneumoniae CTX-M-15 + 8 μg/mL CAZ",[3],C (C represents an MIC of <1 μg/mL)
"O=C(N[C@@H](Cc1cccc(C(=O)O)c1O)B(O)O)c1ccc(Cl)nc1 [Example 31, (1R)-1-(6-Chloro-pyridine-3-carbonyl)-amino-1-(3-carboxy-2-hydroxy)benzyl-methylboronic acid]","MIC of example compound, K. pneumoniae KPC-2 + 8 μg/mL CAZ",[1],C (C represents an MIC of <1 μg/mL)
same,IC50,Class C P99 AmpC,< 0.01 µM
same,IC50,Class A ESBL SHV-5; [4],< 0.01 µM
same,IC50,Class A ESBL CTXM-15,< 0.01 µM
same,IC50,[2],< 0.01 µM
same,"MIC of example compound, K. pneumoniae CTX-M-15 + 8 μg/mL CAZ",[3],C (C represents an MIC of <1 μg/mL)
"CS(=O)(=O)c1ccc(CC(=O)N[C@@H](Cc2cccc(C(=O)O)c2O)B(O)O)cc1 [Example 62, (1R)-1-(2-(4-(methylsulfonyl)phenyl)-acetylamino)-2-(2-hydroxy-3-carboxyphenyl)ethyl-1-boronic acid]","MIC of example compound, K. pneumoniae KPC-2 + 8 μg/mL CAZ",[1],C (C represents an MIC of <1 μg/mL)
same,IC50,Class C P99 AmpC,< 0.01 µM
same,IC50,Class A ESBL SHV-5; [4],< 0.01 µM
same,IC50,Class A ESBL CTXM-15,< 0.01 µM
same,IC50,[2],< 0.01 µM
same,"MIC of example compound, K. pneumoniae CTX-M-15 + 8 μg/mL CAZ",[3],C (C represents an MIC of <1 μg/mL)
"O=C(N[C@@H](Cc1cccc(C(=O)O)c1O)B(O)O)c1cccc(O)c1 [Example 28, (1R)-1-(3-hydroxybenzoylamino)-2-(2-hydroxy-3-carboxyphenyl)ethyl-1-boronic acid]","MIC of example compound, K. pneumoniae KPC-2 + 8 μg/mL CAZ",[1],C (C represents an MIC of <1 μg/mL)
same,IC50,Class C P99 AmpC,< 0.01 µM
same,IC50,Class A ESBL SHV-5; [5],0.01 to 0.1 µM
same,IC50,Class A ESBL CTXM-15,< 0.01 µM
same,IC50,[2],0.01 to 0.1 µM
same,"MIC of example compound, K. pneumoniae CTX-M-15 + 8 μg/mL CAZ",[3],C (C represents an MIC of <1 μg/mL)
"O=C(Cc1cc(O)ccc1O)N[C@@H](Cc1cccc(C(=O)O)c1O)B(O)O [Example 18, (1R)-1-(2-(2,5-dihydroxyphenyl)acetylamino)-2-(2-hydroxy-3-carboxyphenyl)ethyl-1-boronic acid]",IC50,Class C P99 AmpC,< 0.01 µM
same,IC50,Class A ESBL SHV-5; [5],< 0.01 µM
same,IC50,Class A ESBL CTXM-15,< 0.01 µM
same,IC50,[2],< 0.01 µM
same,"MIC of example compound, K. pneumoniae CTX-M-15 + 8 μg/mL CAZ",[3],C (C represents an MIC of <1 μg/mL)
"O=C(COCc1ccccc1)N[C@@H](Cc1cccc(C(=O)O)c1O)B(O)O [Example 22, (1R)-1-(2-benzyloxyacetylamino)-2-(2-hydroxy-3-carboxyphenyl)ethyl-1-boronic acid]","MIC of example compound, K. pneumoniae KPC-2 + 8 μg/mL CAZ",[1],C (C represents an MIC of <1 μg/mL)
same,IC50,Class C P99 AmpC,0.01 to 0.1 µM
same,IC50,Class A ESBL SHV-5; [5],< 0.01 µM
same,IC50,Class A ESBL CTXM-15,< 0.01 µM
same,IC50,[2],< 0.01 µM
same,"MIC of example compound, K. pneumoniae CTX-M-15 + 8 μg/mL CAZ",[3],C (C represents an MIC of <1 μg/mL)
"CC(=O)N[C@@H](Cc1cccc(C(=O)O)c1O)B(O)O [Example 6, (1R)-1-(2-acetylamino)-2-(2-hydroxy-3-carboxyphenyl)ethyl-1-boronic acid]","MIC of example compound, K. pneumoniae KPC-2 + 8 μg/mL CAZ",[1],C (C represents an MIC of <1 μg/mL)
same,IC50,Class C P99 AmpC,0.01 to 0.1 µM
same,IC50,Class A ESBL SHV-5; [5],0.1 to 1 µM
same,IC50,Class A ESBL CTXM-15,< 0.01 µM
same,"MIC of example compound, K. pneumoniae CTX-M-15 + 8 μg/mL CAZ",[3],C (C represents an MIC of <1 μg/mL)
"NC(=O)COc1cccc(CC(=O)N[C@@H](Cc2cccc(C(=O)O)c2O)B(O)O)c1 [Example 8, (1R)-1-[(3-carbamoylmethoxy)-phenyl]-acetylamino-(3-carboxy-2-hydroxy), benzyl-methylboronic acid]","MIC of example compound, K. pneumoniae KPC-2 + 8 μg/mL CAZ",[1],C (C represents an MIC of <1 μg/mL)
same,IC50,Class C P99 AmpC,< 0.01 µM
same,IC50,Class A ESBL SHV-5; [5],< 0.01 µM
same,IC50,Class A ESBL CTXM-15,< 0.01 µM
same,"MIC of example compound, K. pneumoniae CTX-M-15 + 8 μg/mL CAZ",[3],C (C represents an MIC of <1 μg/mL)
"N[C@H](C(=O)N[C@@H](Cc1cccc(C(=O)O)c1O)B(O)O)c1ccccc1.O=CO [Example 12, (1R,2′S)-1-(2-amino-2-phenylacetylamino)-2-(2-hydroxy-3-carboxyphenyl)ethyl-1-boronic acid formate salt]","MIC of example compound, K. pneumoniae KPC-2 + 8 μg/mL CAZ",[1],C (C represents an MIC of <1 μg/mL)
same,IC50,Class C P99 AmpC,0.1 to 1 µM
same,IC50,Class A ESBL SHV-5; [5],0.1 to 1 µM
same,IC50,Class A ESBL CTXM-15,0.01 to 0.1 µM
same,"MIC of example compound, K. pneumoniae CTX-M-15 + 8 μg/mL CAZ",[3],C (C represents an MIC of <1 μg/mL)
